# Assay results taken from patent US10344026B2, “Compositions and methods of targeting mutant K-ras” (NANTBIO, INC., priority 2017, dated 2019).
# Experiments:
# Type in all cases: cell-based
# [1] = tested on: U87-MG (K-Ras wild type cell line); experiment: Viability assay (CellTiterBlue, 72 hr) U87-MG; settings: Homo sapiens, U-87 MG, GI50, CellTiterBlue, U87-MG K-Ras wild-type
# How it was run: (§1)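 Fluorescence at Ex550/Em590, read 3 hr after CellTiterBlue addition, served as the viability signal following 72 hr compound treatment. Wells held 1000 cells, pre-incubated 18 hr at 37 °C, with 0.5% DMSO final. GI50 derived with DMSO as 100% and 100 uM tamoxifen as 0% viability.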
# [2] = tested on: phospho-Akt in A375 (Wild-type); experiment: In-Cell Western phospho-Akt, A375; settings: Homo sapiens, A-375, 1 h; A375, one hour treatment; read-out: In-Cell Western A375 (Wild-type) Akt (P)
# How it was run: (§2)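 EC50 values come from immunofluorescence quantitation of phosphorylated ERK or Akt in fixed cells exposed to compound for one hour at 0.5% DMSO. Maximal inhibition is defined by 1 uM BEZ235 for Akt and 1 uM MEK Inhibitor II for ERK.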
# [3] = biological target: T1, K-Ras G12D (Homo sapiens, UniProt P01116, G12D); experiment: G-LISA Ras activation, 293H cells transfected with G12D mutant; settings: compound 1 hour
# T1 construct: expressed in transfected cells; host or cells: 293H cells
# T1 sequence (P01116 whole entry G12D): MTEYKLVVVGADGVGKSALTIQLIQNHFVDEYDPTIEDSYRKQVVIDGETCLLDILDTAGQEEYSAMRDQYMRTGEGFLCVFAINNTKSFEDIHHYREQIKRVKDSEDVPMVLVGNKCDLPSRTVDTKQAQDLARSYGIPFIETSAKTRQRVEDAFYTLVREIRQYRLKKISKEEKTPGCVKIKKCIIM
# How it was run: (§3)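 Active Ras was quantified by G-LISA in lysates of 293H cells made the day after transfection with wild-type, G12D or G12V Ras plasmid (5 μg). Compounds were applied at 3.125-25 μM for 1 h; only the wild-type cells got a 2-min 100 ng/ml EGF pulse before lysis.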
# [4] = tested on: HCT116-G31D; experiment: Viability assay (CellTiterBlue, 72 hr) HCT116; settings: Homo sapiens, HCT-116, GI50, CellTiterBlue, HCT116 K-Ras G13D, read-out: 72 hr Cell Viability HCT116 (G13D)
# How it was run: as §1
# [5] = tested on: phospho-ERK in HCC827 (Wild-type); experiment: In-Cell Western phospho-ERK, HCC827; settings: Homo sapiens, 1 h; HCC827, one hour treatment; read-out: In-Cell Western HCC827 (Wild-type) Erk (P)
# How it was run: as §2
# [6] = tested on: Panc10.05-G12D; experiment: Viability assay (CellTiterBlue, 72 hr) Panc10.05; settings: Homo sapiens, Panc1005, GI50, CellTiterBlue, Panc10.05 K-Ras G12D, read-out: 72 hr Cell Viability Panc10.05 (G12D)
# How it was run: as §1
# [7] = biological target: T2, wild type K-Ras (Homo sapiens, UniProt P01116); experiment: G-LISA Ras activation, 293H cells transfected with Ras wild-type, EGF stimulated; settings: compound 1 hour, then 100 ng/ml EGF 2 minutes
# T2 construct: expressed in transfected cells; host or cells: 293H cells
# T2 sequence (P01116 whole entry): as the sequence (P01116 whole entry G12D) above, with D12G counted along it
# How it was run: as §3
# [8] = tested on: phospho-Akt in Panc1 (G12D); experiment: In-Cell Western phospho-Akt, Panc1; settings: Homo sapiens, PANC-1, 1 h; Panc1, one hour treatment; read-out: In-Cell Western Panc1 (G12D) Akt (P)
# How it was run: as §2
# [9] = tested on: phospho-ERK in Panc10.05 (G12D); experiment: In-Cell Western phospho-ERK, Panc10.05; settings: Homo sapiens, Panc1005, 1 h; Panc10.05, one hour treatment; read-out: In-Cell Western Panc10.05 (G12D) Erk (P)
# How it was run: as §2
# [10] = tested on: Ishikawa (K-Ras wild type cell line); experiment: Viability assay (CellTiterBlue, 72 hr) Ishikawa; settings: Homo sapiens, GI50, CellTiterBlue, Ishikawa K-Ras wild-type
# How it was run: as §1
# [11] = tested on: phospho-Akt in HCC827 (Wild-type); experiment: In-Cell Western phospho-Akt, HCC827; settings: Homo sapiens, 1 h; HCC827, one hour treatment; read-out: In-Cell Western HCC827 (Wild-type) Akt (P)
# How it was run: as §2
# [12] = tested on: phospho-Akt in Panc10.05 (G12D); experiment: In-Cell Western phospho-Akt, Panc10.05; settings: Homo sapiens, Panc1005, 1 h; Panc10.05, one hour treatment; read-out: In-Cell Western Panc10.05 (G12D) Akt (P)
# How it was run: as §2
# [13] = tested on: HCC827 (K-Ras wild type cell line); experiment: Viability assay (CellTiterBlue, 72 hr) HCC827; settings: Homo sapiens, GI50, CellTiterBlue, HCC827 K-Ras wild-type
# How it was run: as §1
# [14] = tested on: A375 (K-Ras wild type cell line); experiment: Viability assay (CellTiterBlue, 72 hr) A375; settings: Homo sapiens, A-375, GI50, CellTiterBlue
# How it was run: as §1
# [15] = tested on: phospho-ERK in A375 (Wild-type); experiment: In-Cell Western phospho-ERK, A375; settings: Homo sapiens, A-375, 1 h; A375, one hour treatment; read-out: In-Cell Western A375 (Wild-type) Erk (P)
# How it was run: as §2
# [16] = tested on: Panc1-G12D; experiment: Viability assay (CellTiterBlue, 72 hr) Panc1; settings: Homo sapiens, PANC-1, GI50, CellTiterBlue, Panc1 K-Ras G12D, read-out: 72 hr Cell Viability Panc1 (G12D)
# How it was run: as §1
# [17] = tested on: phospho-ERK in Panc1 (G12D); experiment: In-Cell Western phospho-ERK, Panc1; settings: Homo sapiens, PANC-1, 1 h; Panc1, one hour treatment; read-out: In-Cell Western Panc1 (G12D) Erk (P)
# How it was run: as §2
compound,measurement,setting,value
"Cc1nn(-c2ccccc2)c(C)c1C(=O)Nc1nc(-c2ccc3c(c2)CCC(=O)N3)cs1 [Compound 53, 3,5-dimethyl-N-(4-(2-oxo-1,2,3,4-tetrahydroquinolin-6-yl)thiazol-2-yl)-1-phenyl-1H-pyrazole-4-carboxamide]",IC50,[1],15 µM
same,EC50,[2],10 µM
same,IC50,[3],6.7 µM
same,IC50,[4],11 µM
same,EC50,[5],14 µM
same,IC50,[6],10 µM
same,IC50,[7],7.7 µM
same,EC50,[8],> 25 µM
same,EC50,[9],3 µM
same,IC50,[10],13 µM
same,EC50,[11],> 25 µM
same,EC50,[12],15 µM
same,IC50,[13],10 µM
same,IC50,[14],3 µM
same,EC50,[15],6 µM
same,IC50,[16],12 µM
same,EC50,[17],16 µM
"Cc1nn(-c2ccc(F)cc2)c(C)c1C(=O)Nc1nc(-c2ccc3c(c2)CCC(=O)N3)cs1 [Compound 54, 1-(4-fluorophenyl)-3,5-dimethyl-N-(4-(2-oxo-1,2,3,4-tetrahydroquinolin-6-yl)thiazol-2-yl)-1-pyrazole-4-carboxamide]",IC50,[1],15 µM
same,EC50,[2],> 25 µM
same,IC50,[3],7.9 µM
same,IC50,[4],23 µM
same,EC50,[5],> 25 µM
same,IC50,[6],6 µM
same,IC50,[7],10.6 µM
same,EC50,[8],> 25 µM
same,EC50,[9],3 µM
same,IC50,[10],> 25 µM
same,EC50,[11],> 25 µM
same,EC50,[12],> 25 µM
same,IC50,[13],13 µM
same,IC50,[14],26 µM
same,EC50,[15],> 25 µM
same,IC50,[16],15 µM
same,EC50,[17],> 25 µM
"CCCn1nc(C)c(C(=O)Nc2nc(-c3ccc4c(c3)CCC(=O)N4)cs2)c1C [Compound 55, 3,5-dimethyl-N-(4-(2-oxo-1,2,3,4-tetrahydroquinolin-6-yl)thiazol-2-yl)-1-propyl-1H-pyrazole-4-carboxamide]",IC50,[1],> 25 µM
same,EC50,[2],> 25 µM
same,IC50,[3],4 µM
same,IC50,[4],> 25 µM
same,EC50,[5],> 25 µM
same,IC50,[6],> 25 µM
same,IC50,[7],6.5 µM
same,EC50,[8],> 25 µM
same,EC50,[9],14 µM
same,IC50,[10],> 25 µM
same,EC50,[11],> 25 µM
same,EC50,[12],> 25 µM
same,IC50,[13],> 25 µM
same,IC50,[14],> 25 µM
same,EC50,[15],> 25 µM
same,IC50,[16],> 25 µM
same,EC50,[17],> 25 µM
"Cc1nn(Cc2ccccc2)c(C)c1C(=O)Nc1nc(-c2ccc3c(c2)CCC(=O)N3)cs1 [Compound 56, 1-benzyl-3,5-dimethyl-N-(4-(2-oxo-1,2,3,4-tetrahydroquinolin-6-yl)thiazol-2-yl)-1H-pyrazole-4-carboxamide]",IC50,[1],12 µM
same,EC50,[2],> 25 µM
same,IC50,[3],6.6 µM
same,IC50,[4],6 µM
same,EC50,[5],9 µM
same,IC50,[6],7 µM
same,IC50,[7],19.2 µM
same,EC50,[8],27 µM
same,EC50,[9],3 µM
same,IC50,[10],7 µM
same,EC50,[11],> 25 µM
same,EC50,[12],21 µM
same,IC50,[13],7 µM
same,IC50,[14],4 µM
same,EC50,[15],16 µM
same,IC50,[16],9 µM
same,EC50,[17],3 µM
"Cc1nn(C(C)(C)C)c(C)c1C(=O)Nc1nc(-c2ccc3c(c2)CCC(=O)N3)cs1 [Compound 57, 1-(tert-butyl)-3,5-dimethyl-N-(4-(2-oxo-1,2,3,4-tetrahydroquinolin-6-yl)thiazol-2-yl)-1H-pyrazole-4-carboxamide]",IC50,[1],> 25 µM
same,EC50,[2],> 25 µM
same,IC50,[3],9.4 µM
same,IC50,[4],> 25 µM
same,EC50,[5],> 25 µM
same,IC50,[6],8 µM
same,IC50,[7],30 µM
same,EC50,[8],> 25 µM
same,EC50,[9],6 µM
same,IC50,[10],> 25 µM
same,EC50,[11],> 25 µM
same,EC50,[12],> 25 µM
same,IC50,[13],> 25 µM
same,IC50,[14],27 µM
same,EC50,[15],> 25 µM
same,IC50,[16],> 25 µM
same,EC50,[17],26 µM
